Laboratory results taken from patent publication US7893077B2, “Bisaryl-sulfonamides” (Amgen Inc., priority 2004, dated 2011).

Molecular target: T1, PPARγ (Homo sapiens, UniProt P37231)
T1 construct: made in house
T1 sequence (P37231 1-505): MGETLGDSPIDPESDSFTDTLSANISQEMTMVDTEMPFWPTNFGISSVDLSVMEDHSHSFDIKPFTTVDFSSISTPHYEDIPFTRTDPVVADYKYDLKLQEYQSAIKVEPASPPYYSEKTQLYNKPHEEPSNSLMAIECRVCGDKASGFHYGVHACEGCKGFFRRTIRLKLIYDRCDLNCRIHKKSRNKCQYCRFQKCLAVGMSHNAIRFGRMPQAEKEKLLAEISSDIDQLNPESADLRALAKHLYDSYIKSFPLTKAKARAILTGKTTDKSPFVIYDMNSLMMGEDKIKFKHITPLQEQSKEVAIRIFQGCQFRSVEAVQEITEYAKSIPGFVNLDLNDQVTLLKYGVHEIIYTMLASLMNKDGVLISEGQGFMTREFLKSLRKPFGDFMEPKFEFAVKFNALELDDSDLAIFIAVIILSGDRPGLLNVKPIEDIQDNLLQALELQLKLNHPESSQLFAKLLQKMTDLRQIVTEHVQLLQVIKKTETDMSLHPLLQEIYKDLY
Test: PPARγ ligand binding assay utilizing [3H]-BRL 49653 as the radioligand (filtration)
Details: concentration required to reduce by 50% the specific binding of [3H]-BRL 49653
Procedure, shortened: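 Displacement of 10 nM [3H]-BRL 49653 from PPARγ-GST fusion protein in Tris-HCl pH 8.0 buffer with KCl, DTT, BSA and NP-40, 15 min incubation, then glutathione-bead capture for 1 h. Bound radioactivity counted after filtration washes; IC50 is concentration giving 50% loss of specific binding, reported in ranges.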

IC50 | SMILES
< 1000 nM | O=C(c1cc(NS(=O)(=O)c2ccc(C(F)(F)F)cc2Cl)ncc1Sc1ccc(S(=O)(=O)N2CCOCC2)cc1)C1CC1 [Compound 129, 2-Chloro-N-{4-cyclopropanecarbonyl-5-[4-(morpholine-4-sulfonyl)-phenylsulfanyl]-pyridin-2-yl}-4-trifluoromethyl-benzenesulfonamide]
< 10000 nM | CCc1nc(NS(=O)(=O)c2ccc(Cl)cc2Cl)ccc1Sc1ccc(S(=O)(=O)N2CCOCC2)cc1 [Compound 104, 2,4-Dichloro-N-{6-ethyl-5-[4-(morpholine-4-sulfonyl) -phenylsulfanyl]-pyridin-2-yl}-benzenesulfonamide]
< 1000 nM | CCCN(C)c1nc(NS(=O)(=O)c2ccc(Cl)cc2Cl)ncc1Sc1ccc(S(=O)(=O)N2CCCCC2)cc1 [Compound 15, 2,4-Dichloro-N-{4-(methyl-propyl-amino)-5-[4-(piperidine-1-sulfonyl)-phenylsulfanyl]-pyrimidin-2-yl}-benzenesulfonamide]
< 1000 nM | CCCNc1nc(NS(=O)(=O)c2ccc(Cl)cc2Cl)ncc1Sc1ccc(S(=O)(=O)N2CCCCC2)cc1 [Compound 12, 2,4-Dichloro-N-{5-[4-(piperidine-1-sulfonyl)-phenylsulfanyl]-4-propylamino-pyrimidin-2-yl}-benzenesulfonamide]
< 10000 nM | CCCOc1nc(NS(=O)(=O)c2ccc(C(F)(F)F)cc2Cl)ccc1Sc1ccc(S(=O)(=O)N2CCCCC2)cc1 [Compound 110, 2-Chloro-N-{5-[4-(piperidine-1-sulfonyl)-phenylsulfanyl]-6-propoxy-pyridin-2-yl}-4-trifluoromethyl-benzenesulfonamide]
< 1000 nM | CCCCc1cc(NS(=O)(=O)c2ccc(Cl)cc2Cl)nnc1Sc1ccc(S(=O)(=O)C2CCCC2)cc1 [Compound 133, 3-(2′,4′-dichloro)phenylsulfonylamino-5-n-butyl-6-(4″-cyclopentanesulfonyl)phenylthiopyridazine]
< 1000 nM | CCCC(=O)c1nc(NS(=O)(=O)c2ccc(C(F)(F)F)cc2Cl)ccc1Sc1ccc(S(=O)(=O)NCC)cc1 [Compound 120, N-[6-Butyryl-5-(4-ethylsulfamoyl-phenylsulfanyl)-pyridin-2-yl]-2-chloro-4-trifluoromethyl-benzenesulfonamide]
< 1000 nM | Cc1cc(S(=O)(=O)Nc2ccc(Sc3ccc(S(=O)(=O)N4CCCCC4)cc3)nn2)c(Cl)cc1Cl [Compound 140, 2,4-Dichloro-5-methyl-N-{6-[4-(piperidine-1-sulfonyl) -phenylsulfanyl]-pyridazin-3-yl}-benzenesulfonamide]
< 10000 nM | Cc1nc(NS(=O)(=O)c2ccc(C(F)(F)F)cc2Cl)ncc1Sc1ccc2ccccc2c1 [Compound 59, 2-Chloro-N-[4-methyl-5-(naphthalen-2-ylsulfanyl)-pyrimidin-2-yl]-4-trifluoromethyl-benzenesulfonamide]
< 10000 nM | CCCOc1nc(NS(=O)(=O)c2ccc(Cl)cc2Cl)ccc1Sc1ccc(S(=O)(=O)N2CCCCC2)cc1 [Compound 111, 2,4-Dichloro-N-{5-[4-(piperidine-1-sulfonyl)-phenylsulfanyl]-6-propoxy-pyridin-2-yl}-benzenesulfonamide]
< 10000 nM | COc1nc(NS(=O)(=O)c2ccc(Cl)cc2Cl)ncc1Sc1ccc2ccccc2c1 [Compound 30, 2,4-Dichloro-N-[4-methoxy-5-(naphthalen-2-ylsulfanyl)-pyrimidin-2-yl]-benzenesulfonamide]
< 10000 nM | Cc1nc(NS(=O)(=O)c2ccc(C(F)(F)F)cc2Cl)ncc1Sc1ccc(S(=O)(=O)N2CCOCC2)cc1 [Compound 53, 2-Chloro-N-{4-methyl-5-[4-(morpholine-4-sulfonyl) -phenylsulfanyl]-pyrimidin-2-yl}-4-trifluoromethyl-benzenesulfonamide]
< 1000 nM | O=S(=O)(Nc1ncc(Sc2ccc(S(=O)(=O)N3CCCCC3)cc2)c(NCC2CC2)n1)c1ccc(Cl)cc1Cl [Compound 19, 2,4-Dichloro-N-{4-(cyclopropylmethyl-amino)-5-[4-(piperidine-1-sulfonyl)-phenylsulfanyl]-pyrimidin-2-yl}-benzenesulfonamide]
< 1000 nM | Cc1cc(NS(=O)(=O)c2ccc(C(F)(F)F)cc2Cl)nnc1Sc1ccc(S(=O)(=O)N2CCCCC2)cc1 [Compound 136, 2-Chloro-N-{5-methyl-6-[4-(piperidine-1-sulfonyl) -phenylsulfanyl]-pyridazin-3-yl}-4-trifluoromethyl-benzenesulfonamide]
< 1000 nM | CCCOc1nc(NS(=O)(=O)c2ccc(Cl)cc2Cl)ncc1Sc1ccc(S(=O)(=O)N2CCCCC2)cc1 [Compound 28, 2,4-Dichloro-N-{5-[4-(piperidine-1-sulfonyl)-phenylsulfanyl]-4-propoxy-pyrimidin-2-yl}-benzenesulfonamide]
< 1000 nM | CCCCc1nc(NS(=O)(=O)c2ccc(OC)cc2)ncc1Sc1ccc(S(=O)(=O)N2CCCCC2)cc1 [Compound 45, N-{4-Butyl-5-[4-(piperidine-1-sulfonyl)-phenylsulfanyl]-pyrimidin-2-yl}-4-methoxy-benzenesulfonamide]
< 1000 nM | CCCC(=O)c1nc(NS(=O)(=O)c2ccc(Cl)cc2Cl)ccc1Sc1ccc(S(=O)(=O)C2CCCC2)cc1 [Compound 112, N-[6-Butyryl-5-(4-cyclopentanesulfonyl-phenylsulfanyl)-pyridin-2-yl]-2,4-dichloro-benzenesulfonamide]
< 10000 nM | CCCNc1nc(NS(=O)(=O)c2ccc(Cl)cc2Cl)ncc1Oc1ccc(Cl)c(Cl)c1 [Compound 27, 2,4-Dichloro-N-[5-(3,4-dichloro-phenoxy)-4-propylamino-pyrimidin-2-yl]-benzenesulfonamide]
< 1000 nM | CCCC(=O)c1nc(NS(=O)(=O)c2ccc(C(F)(F)F)cc2Cl)ccc1Sc1ccc(S(=O)(=O)C2CCCC2)cc1 [Compound 114, N-[6-Butyryl-5-(4-cyclopentanesulfonyl-phenylsulfanyl)-pyridin-2-yl]-2-chloro-4-trifluoromethyl-benzenesulfonamide]
< 1000 nM | CCNc1nc(NS(=O)(=O)c2ccc(Cl)cc2Cl)ncc1Sc1ccc(S(=O)(=O)N2CCCCC2)cc1 [Compound 13, 2,4-Dichloro-N-{4-ethylamino-5-[4-(piperidine-1-sulfonyl) -phenylsulfanyl]-pyrimidin-2-yl}-benzenesulfonamide]
< 1000 nM | CCCC(=O)c1nc(NS(=O)(=O)c2ccc(C(F)(F)F)cc2Cl)ccc1Sc1ccc(S(=O)(=O)N2CCCC2)cc1 [Compound 97, N-{6-Butyryl-5-[4-(pyrrolidine-1-sulfonyl)-phenylsulfanyl]-pyridin-2-yl}-2-chloro-4-trifluoromethyl-benzenesulfonamide]
< 30000 nM | CCC(CC)Nc1nc(NS(=O)(=O)c2ccc(Cl)cc2Cl)ncc1Sc1ccc(S(=O)(=O)N2CCCCC2)cc1 [Compound 18, 2,4-Dichloro-N-{4-(1-ethyl-propylamino)-5-[4-(piperidine-1-sulfonyl)-phenylsulfanyl]-pyrimidin-2-yl}-benzenesulfonamide]
